Where “and” joins values, the source holds several entries; their conditions need not be identical. Equal values may be shown once.
Molecular target: Gamma-aminobutyric acid receptor subunit alpha-1 (Rattus norvegicus, UniProt P62813)
Sequence (P62813 whole entry): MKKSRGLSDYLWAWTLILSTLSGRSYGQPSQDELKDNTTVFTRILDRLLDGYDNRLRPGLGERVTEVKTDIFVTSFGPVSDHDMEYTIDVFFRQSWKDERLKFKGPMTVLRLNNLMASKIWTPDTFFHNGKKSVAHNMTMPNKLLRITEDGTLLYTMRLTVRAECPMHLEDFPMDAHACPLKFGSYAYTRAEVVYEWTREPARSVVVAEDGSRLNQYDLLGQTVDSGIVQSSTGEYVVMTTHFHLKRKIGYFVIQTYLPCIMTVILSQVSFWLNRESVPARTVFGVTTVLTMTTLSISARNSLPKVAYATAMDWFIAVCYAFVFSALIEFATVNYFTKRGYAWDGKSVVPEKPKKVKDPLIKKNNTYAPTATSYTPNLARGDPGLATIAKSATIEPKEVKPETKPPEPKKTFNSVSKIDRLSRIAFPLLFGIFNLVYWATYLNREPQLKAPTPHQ

Structure (SMILES)	Ki
CCOC(=O)c1cc2c(cn1)[nH]c1ccccc12	2920 nM
OCCN(CCO)c1nc(N2CCCCC2)c2nc(N(CCO)CCO)nc(N3CCCCC3)c2n1 [Dipyridamine]	87.9 nM and 162 nM

From BindingDB's records for doi:10.1016/s0006-2952(97)00433-4 (Tokyo Dental College, 1998)
